Results reported in US20260242395A1, “AMINOHETEROARYL KINASE INHIBITORS” (ALLORION THERAPEUTICS INC, priority 2022, published 2026).
pIC50: −log10 of the molar value.

Columns and labels:
CDK4/CyclinD1 = biological target: T1, CDK4/CyclinD1 (Homo sapiens, UniProt P11802); experiment: CDK4/CyclinD1 kinase inhibitory activity (Caliper mobility shift); type: biochemical; conditions: enzyme 20 nM, ATP 672 uM, 28° C. 30 min; read-out: CDK4/Cyclin D1 IC50
T1 construct: purchased ProQinase 0142-0143-1
Experimental: CDK4/CyclinD1 kinase inhibitory activity (IC50): 5 μl of various dilutions of test compound in 1× kinase buffer (20 mM HEPES, pH 7.5, 10 mM MgCl2, 2 mM DTT and 0.01% Triton X-100) was mixed with 10 μL of either CDK4/Cyclin D1 (ProQinase, 0142-0143-1 #, final concentration 20 nM in 1× Kinase buffer) or in 384 plates and incubated at room temperature for 10 min. To initiate each reaction, 10 μL of peptide solution containing fluorescently-labeled-peptide 8(5-FAM-IPTSPITTTYFFFKKK-COOH, GL, 112396 #, final concentration 3000 nM) and ATP (final concentration 672 uM for CDK4/CyclinD1) in 1×Kinase buffer was added to each of the wells containing test compound and CDK4/CyclinD1 mixture. The reaction is then allowed to proceed at 28° C. for 30 min and terminated by the addition of 25 μL stop buffer (100 mM HEPES pH 7.5, 50 mM EDTA, 0.2% Coating Reagent #3 (Perkin Elmer, 760050 #) and 0.015% Brij-35).
(§1) Following the kinase reaction, Caliper EZ reader II (Downstream voltages: −500V, Upstream voltages: −2250V, Base pressure −0.5 PSI, Screen pressure −1.2 PSI) was used to separate the phosphorylated (product) and the unphosphorylated (substrate) fluorescently-labeled peptide 8 based on their different mobility. Both substrate and product were measured and the ratio of these values were used to generate % conversion by Caliper EZ reader II. These conversion values were then transformed into % inhibition of kinase activity using the formula: % Inhibition=[(MA−X)/(MA−MI)]×100% where MA=conversion value of DMSO only controls, MI=conversion value of no enzyme controls and X=conversion value at any given compound dose. IC50 values were then calculated by plotting dose-response curves and then using the XLfit application in Excel software.

CDK6/CyclinD3 = biological target: T2, CDK6/CyclinD3 (Homo sapiens, UniProt Q00534); experiment: CDK6/CyclinD3 kinase inhibitory activity (Caliper mobility shift); type: biochemical; conditions: enzyme 15 nM, ATP 800 μM, 28° C. 30 min; read-out: CDK6/Cyclin D3 IC50
T2 construct: purchased Carna 04-107
T2 sequence (Q00534 whole entry): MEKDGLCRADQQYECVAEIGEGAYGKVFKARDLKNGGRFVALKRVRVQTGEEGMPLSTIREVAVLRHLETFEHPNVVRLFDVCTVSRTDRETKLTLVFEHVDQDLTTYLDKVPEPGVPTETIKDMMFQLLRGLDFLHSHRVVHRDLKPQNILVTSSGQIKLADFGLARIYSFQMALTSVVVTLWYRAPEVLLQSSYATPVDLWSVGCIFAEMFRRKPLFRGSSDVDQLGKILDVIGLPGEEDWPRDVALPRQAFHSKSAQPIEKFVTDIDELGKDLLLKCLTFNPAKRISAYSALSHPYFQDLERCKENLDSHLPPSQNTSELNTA
T2 sequence (P30281 whole entry partner): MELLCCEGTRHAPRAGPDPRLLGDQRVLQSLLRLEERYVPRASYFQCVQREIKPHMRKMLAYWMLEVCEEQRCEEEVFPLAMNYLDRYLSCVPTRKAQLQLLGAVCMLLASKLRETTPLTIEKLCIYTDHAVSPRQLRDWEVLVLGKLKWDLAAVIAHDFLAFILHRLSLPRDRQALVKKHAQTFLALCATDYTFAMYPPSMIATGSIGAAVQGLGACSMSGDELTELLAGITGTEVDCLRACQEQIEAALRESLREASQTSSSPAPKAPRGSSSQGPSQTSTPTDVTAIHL
Experimental: CDK6/CyclinD3 kinase inhibitory activity (IC50): 5 μl of various dilutions of test compound in 1× kinase buffer (50 mM HEPES pH 7.5, 10 mM MgCl2, 2 mM DTT and 0.01% Brij-35) was mixed with 10 μL of CDK6/CyclinD3 (Carna, 04-107 #, final concentration 15 nM in 1× Kinase buffer) in 384 plates and incubated at room temperature for 10 min. To initiate each reaction, 10 μL of peptide solution containing fluorescently-labeled -peptide 8(5-FAM-IPTSPITTTYFFFKKK-COOH, GL, 112396 #, final concentration 3000 nM) and ATP (final concentration 800 μM for CDK6/CyclinD3 in 1× Kinase buffer was added to each of the wells containing test compound and CDK6/CyclinD3. The reaction is then allowed to proceed at 28° C. for 30 min and terminated by the addition of 25 μL stop buffer (100 mM HEPES pH 7.5, 50 mM EDTA, 0.2% Coating Reagent #3 (Perkin Elmer, 760050 #) and 0.015% Brij-35).
as §1

T1 sequence (P11802 whole entry): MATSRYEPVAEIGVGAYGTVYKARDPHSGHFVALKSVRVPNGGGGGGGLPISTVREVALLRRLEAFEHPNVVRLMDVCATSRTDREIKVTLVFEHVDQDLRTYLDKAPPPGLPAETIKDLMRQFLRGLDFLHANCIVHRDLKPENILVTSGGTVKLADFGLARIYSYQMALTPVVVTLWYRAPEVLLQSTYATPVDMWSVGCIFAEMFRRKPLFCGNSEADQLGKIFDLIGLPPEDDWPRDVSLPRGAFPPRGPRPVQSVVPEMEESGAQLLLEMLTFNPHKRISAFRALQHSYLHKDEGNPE
T1 sequence (P24385 whole entry partner): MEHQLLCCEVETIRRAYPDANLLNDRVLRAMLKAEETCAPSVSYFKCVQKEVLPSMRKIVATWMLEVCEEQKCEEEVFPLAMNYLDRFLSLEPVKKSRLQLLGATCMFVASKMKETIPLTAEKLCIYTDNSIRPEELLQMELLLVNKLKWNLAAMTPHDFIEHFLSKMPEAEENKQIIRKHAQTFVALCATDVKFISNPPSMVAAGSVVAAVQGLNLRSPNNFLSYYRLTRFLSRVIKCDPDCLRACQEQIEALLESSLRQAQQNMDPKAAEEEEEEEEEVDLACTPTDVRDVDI

Row | SMILES | pIC50 (CDK4/CyclinD1) | pIC50 (CDK6/CyclinD3)
1 | Cc1nc2c(F)cc(-c3nc(N[C@@H]4CCOC[C@H]4O)ncc3Cl)cc2cc1C(C)NC1CC1 (single isomer, unassigned) [Example 73a] | 7.00 to 8.00 | 6.00 to 7.00
2 | [2H]c1nc(N[C@@H]2CCOC[C@H]2O)nc(-c2cc(F)c3nc(C)c(C(C)NC4CC4)cc3c2)c1F (single isomer, unassigned) [Example 77b] | > 8.00 | 6.00 to 7.00
3 | [2H]c1nc2c(F)cc(-c3ccnc(N[C@@H]4CCOC[C@H]4O)n3)cc2c2c1CC1(CC1)NC2 [Example 66] | 7.00 to 8.00 | 6.00 to 7.00
4 | CC(C)(O)c1cnc2c(F)cc(-c3nc(N[C@@H]4CCOC[C@H]4O)ncc3Cl)cc2c1F [Example 53] | > 8.00 | 6.00 to 7.00
5 | CC(C)(O)c1cnc2c(F)cc(-c3nc(Nc4ccc(-c5cn[nH]c5)cn4)ncc3F)cc2c1Cl [Example 55] | > 8.00 | ≤ 6.00
6 | O[C@@H]1COCC[C@H]1Nc1ncc(Cl)c(-c2cc(F)c3ncc(C4(O)CC4)c(Cl)c3c2)n1 [Example 44] | > 8.00 | 7.00 to 8.00
7 | CCC(O)c1cc2cc(-c3nc(N[C@@H]4CCOC[C@H]4O)ncc3Cl)cc(F)c2nc1C (single isomer, unassigned) [Example 39a] | > 8.00 | 6.00 to 7.00
8 | CNC(C)c1cnc2c(F)cc(-c3nc(N[C@@H]4CCOC[C@H]4O)ncc3Cl)cc2c1 (single isomer, unassigned) [Example 32b] | 7.00 to 8.00 | 6.00 to 7.00
9 | Cc1nc2c(F)cc(-c3nc(N[C@@H]4CCOC[C@H]4O)ncc3Cl)cc2cc1C1CCCN1 (single isomer, unassigned) [Example 57b] | 7.00 to 8.00 | ≤ 6.00
10 | Cc1c(C(C)NC2CC2)cnc2c(F)cc(-c3nc(N[C@@H]4CCOC[C@H]4O)ncc3Cl)cc12 (single isomer, unassigned) [Example 91a] | 7.00 to 8.00 | 6.00 to 7.00
11 | CNC(C)c1cnc2c(F)cc(-c3nc(N[C@@H]4CCOC[C@H]4O)ncc3Cl)cc2c1C (single isomer, unassigned) [Example 48b] | 7.00 to 8.00 | 6.00 to 7.00
12 | Cc1c(C(C)(C)O)nnc2c(F)cc(-c3nc(N[C@@H]4CCOC[C@H]4O)ncc3Cl)cc12 [Example 87] | 7.00 to 8.00 | 6.00 to 7.00
13 | [2H]c1nc(N[C@@H]2CCOC[C@H]2O)nc(-c2cc(F)c3nc(C)c(C(C)NC4CC4)cc3c2)c1F (single isomer, unassigned) [Example 77a] | > 8.00 | 6.00 to 7.00
14 | [2H]c1nc2c(F)cc(-c3ccnc(N[C@@H]4CCOC[C@H]4O)n3)cc2c2c1CC(C)(C)NC2 [Example 101] | > 8.00 | 6.00 to 7.00
15 | Cc1c(C(C)NC2CC2)cnc2c(F)cc(-c3nc(N[C@@H]4CCOC[C@H]4O)ncc3F)cc12 (single isomer, unassigned) [Example 93b] | > 8.00 | 6.00 to 7.00
16 | CC(C)(O)c1cnc2c(F)cc(-c3ccnc(N[C@@H]4CCOC[C@H]4O)n3)cc2c1Cl [Example 97] | 7.00 to 8.00 | 6.00 to 7.00
17 | [2H]c1nc(N[C@@H]2CCOC[C@H]2O)nc(-c2cc(F)c3nc(C)c(C(C)O)c(C)c3c2)c1F (single isomer, unassigned) [Example 84a] | > 8.00 | 7.00 to 8.00
18 | CC(NC1CC1)c1cnc2c(F)cc(-c3nc(N[C@@H]4CCOC[C@H]4O)ncc3Cl)cc2c1Cl (single isomer, unassigned) [Example 90a] | 7.00 to 8.00 | 6.00 to 7.00
19 | CNC(C)c1cnc2c(F)cc(-c3nc(N[C@@H]4CCOC[C@H]4O)ncc3F)cc2c1Cl (single isomer, unassigned) [Example 64b] | 7.00 to 8.00 | 6.00 to 7.00
20 | Cc1cc(C(C)(C)O)c2cc(-c3nc(N[C@@H]4CCOC[C@H]4O)ncc3Cl)cc(F)c2n1 [Example 75] | 7.00 to 8.00 | 6.00 to 7.00
